IC50 data for nine compounds are collected here from US20260062387A1, “SALT-INDUCIBLE KINASE INHIBITOR COMPOUND AND PHARMACEUTICAL COMPOSITION INCLUDING THE SAME” (MITSUBISHI TANABE PHARMA CORPORATION, priority 2023, published 2026).

Common to all, as to format: biochemical
One assay concerns the target GST-tagged SIK2 (Homo sapiens (Human), UniProt Q9H0K1). In words: SIK2 inhibition test (ADP-Glo Max Assay). As to conditions: enzyme 3 nM, AMARA Peptide 200 μM, ATP 1 mM, 2 hours room temperature. The method in brief: (§1)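 GST-tagged human SIK1, SIK2 and SIK3 at 20 nM, 3 nM and 100 nM final in Tris pH 7.5 buffer, with AMARA peptide (200 μM for SIK1/SIK2, 100 μM for SIK3), 1 mM ATP and 5 mM MgCl2. Reaction ran 2 h at room temperature. ADP read by ADP-Glo Max luminescence, and IC50 fitted from 16 concentrations.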
(In ADP-Glo the light output rises with the ADP produced.)

The target of the next assay is GST-tagged SIK3 (Homo sapiens (Human), UniProt Q9Y2K2). In words: SIK3 inhibition test (ADP-Glo Max Assay). As to conditions: enzyme 100 nM, AMARA Peptide 100 μM, ATP 1 mM, 2 hours room temperature. In a few lines:
as §1

The target of a further assay is GST-tagged SIK1 (Homo sapiens (Human), UniProt P57059). Description: SIK1 inhibition test (ADP-Glo Max Assay). As to conditions: enzyme 20 nM, AMARA Peptide 200 μM, ATP 1 mM, 2 hours room temperature. The method in brief: as §1
GST-tagged SIK1, sequence (P57059 whole entry): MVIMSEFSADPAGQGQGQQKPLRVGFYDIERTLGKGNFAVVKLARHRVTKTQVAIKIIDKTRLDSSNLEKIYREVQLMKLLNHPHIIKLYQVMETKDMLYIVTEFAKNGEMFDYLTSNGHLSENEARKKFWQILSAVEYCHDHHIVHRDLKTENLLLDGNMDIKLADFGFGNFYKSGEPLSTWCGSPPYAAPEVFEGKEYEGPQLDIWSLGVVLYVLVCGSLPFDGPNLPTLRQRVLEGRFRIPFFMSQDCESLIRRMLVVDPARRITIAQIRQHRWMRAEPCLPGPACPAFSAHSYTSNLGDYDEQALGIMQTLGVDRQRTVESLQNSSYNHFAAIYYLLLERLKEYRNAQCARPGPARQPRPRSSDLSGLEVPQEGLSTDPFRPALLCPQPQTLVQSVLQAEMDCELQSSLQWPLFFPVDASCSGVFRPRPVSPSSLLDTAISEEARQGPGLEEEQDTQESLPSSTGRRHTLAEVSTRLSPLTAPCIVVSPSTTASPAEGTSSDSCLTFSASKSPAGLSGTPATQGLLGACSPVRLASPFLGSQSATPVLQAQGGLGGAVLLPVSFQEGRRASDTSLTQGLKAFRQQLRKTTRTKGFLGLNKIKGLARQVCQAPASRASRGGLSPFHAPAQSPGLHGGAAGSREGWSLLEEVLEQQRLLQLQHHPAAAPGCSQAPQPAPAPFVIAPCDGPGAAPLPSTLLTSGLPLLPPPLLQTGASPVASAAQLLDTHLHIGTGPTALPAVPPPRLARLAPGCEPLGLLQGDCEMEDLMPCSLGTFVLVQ

The structures appear in SMILES notation. pIC50: −log10 of the molar value.

GST-tagged SIK2, sequence (Q9H0K1 whole entry): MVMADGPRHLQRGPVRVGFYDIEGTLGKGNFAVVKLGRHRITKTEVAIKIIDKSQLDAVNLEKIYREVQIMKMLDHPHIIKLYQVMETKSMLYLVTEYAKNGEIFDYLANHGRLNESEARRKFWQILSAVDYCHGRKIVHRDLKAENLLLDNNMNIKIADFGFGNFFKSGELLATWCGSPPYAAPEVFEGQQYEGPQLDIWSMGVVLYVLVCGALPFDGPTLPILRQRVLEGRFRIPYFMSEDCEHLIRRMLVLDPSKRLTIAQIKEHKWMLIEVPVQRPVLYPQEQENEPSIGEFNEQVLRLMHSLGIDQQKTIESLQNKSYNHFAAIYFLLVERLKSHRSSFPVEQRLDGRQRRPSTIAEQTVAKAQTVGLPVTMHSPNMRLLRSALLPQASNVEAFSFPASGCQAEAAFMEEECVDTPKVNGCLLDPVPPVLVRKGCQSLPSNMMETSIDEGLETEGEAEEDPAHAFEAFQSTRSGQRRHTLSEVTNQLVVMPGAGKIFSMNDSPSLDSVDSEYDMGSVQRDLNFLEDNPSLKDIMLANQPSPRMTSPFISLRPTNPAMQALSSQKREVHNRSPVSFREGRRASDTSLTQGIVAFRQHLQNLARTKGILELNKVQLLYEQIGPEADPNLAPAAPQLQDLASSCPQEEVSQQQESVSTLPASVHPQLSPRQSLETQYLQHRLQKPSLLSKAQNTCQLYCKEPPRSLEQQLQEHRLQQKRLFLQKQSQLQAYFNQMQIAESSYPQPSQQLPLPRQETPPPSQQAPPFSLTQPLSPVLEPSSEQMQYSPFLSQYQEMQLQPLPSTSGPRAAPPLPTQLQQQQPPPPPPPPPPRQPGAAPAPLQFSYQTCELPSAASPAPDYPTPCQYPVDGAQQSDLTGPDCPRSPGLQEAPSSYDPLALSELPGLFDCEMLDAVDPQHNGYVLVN
GST-tagged SIK3, sequence (Q9Y2K2 whole entry): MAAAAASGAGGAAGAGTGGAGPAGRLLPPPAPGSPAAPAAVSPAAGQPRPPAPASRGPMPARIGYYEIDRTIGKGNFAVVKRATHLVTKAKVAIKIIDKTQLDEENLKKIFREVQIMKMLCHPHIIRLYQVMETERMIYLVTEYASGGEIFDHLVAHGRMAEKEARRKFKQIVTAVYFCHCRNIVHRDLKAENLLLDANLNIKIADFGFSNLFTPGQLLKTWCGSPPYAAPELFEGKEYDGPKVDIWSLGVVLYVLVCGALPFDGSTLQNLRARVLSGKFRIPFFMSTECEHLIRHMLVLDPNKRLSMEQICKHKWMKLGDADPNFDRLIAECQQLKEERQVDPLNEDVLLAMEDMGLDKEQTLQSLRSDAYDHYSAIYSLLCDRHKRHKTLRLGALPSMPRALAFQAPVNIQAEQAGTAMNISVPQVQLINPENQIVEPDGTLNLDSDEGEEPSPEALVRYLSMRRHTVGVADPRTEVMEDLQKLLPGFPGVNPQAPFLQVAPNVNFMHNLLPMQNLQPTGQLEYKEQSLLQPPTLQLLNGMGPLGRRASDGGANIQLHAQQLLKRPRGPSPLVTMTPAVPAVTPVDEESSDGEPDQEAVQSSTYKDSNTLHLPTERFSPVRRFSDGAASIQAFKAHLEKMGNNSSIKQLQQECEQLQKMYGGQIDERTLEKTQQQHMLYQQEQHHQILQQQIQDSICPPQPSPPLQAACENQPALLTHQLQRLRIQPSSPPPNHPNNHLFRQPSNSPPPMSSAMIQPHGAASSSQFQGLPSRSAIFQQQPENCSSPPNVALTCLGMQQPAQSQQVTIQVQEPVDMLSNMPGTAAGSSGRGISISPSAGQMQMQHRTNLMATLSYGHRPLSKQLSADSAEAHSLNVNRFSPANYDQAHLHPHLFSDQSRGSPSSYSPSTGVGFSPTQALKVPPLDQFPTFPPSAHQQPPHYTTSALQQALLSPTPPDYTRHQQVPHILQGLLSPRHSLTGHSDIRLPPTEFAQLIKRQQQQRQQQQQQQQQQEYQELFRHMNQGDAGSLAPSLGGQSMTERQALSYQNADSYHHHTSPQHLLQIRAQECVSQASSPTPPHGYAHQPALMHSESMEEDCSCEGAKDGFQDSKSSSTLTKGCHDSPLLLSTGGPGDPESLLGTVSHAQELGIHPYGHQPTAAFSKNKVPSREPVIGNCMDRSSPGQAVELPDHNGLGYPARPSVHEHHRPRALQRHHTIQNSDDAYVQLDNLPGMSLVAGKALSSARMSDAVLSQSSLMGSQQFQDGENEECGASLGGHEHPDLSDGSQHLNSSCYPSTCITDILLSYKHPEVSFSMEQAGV

As to `COc1cc(-c2c3c(C#N)cc(-c4cnn(CC5(O)CCC5)c4)cc3nn2C)cc(OC(F)F)c1C(=O)NCC1(F)CC1` [Example 84, 4-[4-cyano-6-[1-[(1-hydroxycyclobutyl)methyl]pyrazol-4-yl]-2-methylindazol-3-yl]-2-(difluoromethoxy)-N-[(1-fluorocyclopropyl)methyl]-6-methoxybenzamide], the pIC50 (as a rule, −log10 of the IC50, conventionally taken in molar units) was 7.96 against GST-tagged SIK2, 7.90 on GST-tagged SIK3 and 7.87 against GST-tagged SIK1.
As to `COCCn1cc(-c2cc(C#N)c3c(-c4cc(OC(F)F)c5c(c4)[C@@H](C)CNC5=O)n(C)nc3c2)cn1` (single isomer, unassigned) [Example 172], the pIC50 is 8.11 at GST-tagged SIK2, 8.15 against GST-tagged SIK3 and 7.71 against GST-tagged SIK1.
The corresponding values for `COc1cc(-c2c3c(C#N)cc(-c4cnn(CC[C@@H](C)O)c4)cc3nn2C)cc(OC(F)F)c1C(=O)NCC1(F)CC1` [Example 92, 4-[4-cyano-6-[1-[(3R)-3-hydroxybutyl]pyrazol-4-yl]-2-methylindazol-3-yl]-2-(difluoromethoxy)-N-[(1-fluorocyclopropyl)methyl]-6-methoxybenzamide] are 7.96, 7.99 and 7.77.
The corresponding values for `COc1cc(-c2c3c(C#N)cc(-c4cnn(C)c4)cc3nn2C)cc2c1C(=O)NCC2(C)C` [Example 129, 3-(8-methoxy-4,4-dimethyl-1-oxo-2,3-dihydroisoquinolin-6-yl)-2-methyl-6-(1-methylpyrazol-4-yl)indazol-4-carbonitrile] are 9.05, 8.18 and 8.29.
The corresponding values for `COc1cc(-c2c3c(C#N)cc(-c4cnn(CCN(C)C)c4)cc3nn2C)cc(OC(F)F)c1C(=O)N[C@@H]1C[C@@H]1F` [Example 19, 4-[4-cyano-6-[1-[2-(dimethylamino)ethyl]pyrazol-4-yl]-2-methylindazol-3-yl]-2-(difluoromethoxy)-N-[(1R,2S)-2-fluorocyclopropyl]-6-methoxybenzamide] are 8.89, 8.06 and 8.60.
Consider `COc1cc(-c2c3c(C#N)cc(-c4cnn(CC5CCCS5(=O)=O)c4)cc3nn2C)cc(OC(F)F)c1C(=O)NCC1(F)CC1` (stereo not drawn) [Example 82, 4-[4-cyano-6-[1-[(1,1-dioxothiolan-2-yl)methyl]pyrazol-4-yl]-2-methylindazol-3-yl]-2-(difluoromethoxy)-N-[(1-fluorocyclopropyl)methyl]-6-methoxybenzamide], for which the pIC50 is 8.12 at GST-tagged SIK2, 7.78 against GST-tagged SIK3 and 7.80 on GST-tagged SIK1.
The corresponding values for `COc1cc(-c2c3c(C#N)cc(-c4cnn(CC5CS(=O)(=O)C5)c4)cc3nn2C)cc(OC(F)F)c1C(=O)NCC1(F)CC1` [Example 74, 4-[4-cyano-6-[1-[(1,1-dioxothietan-3-yl)methyl]pyrazol-4-yl]-2-methylindazol-3-yl]-2-(difluoromethoxy)-N-[(1-fluorocyclopropyl)methyl]-6-methoxybenzamide] are 8.59, 8.21 and 8.08.
For the compound `CCn1cc(-c2cc(OC(F)F)c3c(-c4cc(OC)c(C(N)=O)c(OC(F)F)c4)n(C)nc3c2)cn1` [Example 155, 2-(difluoromethoxy)-4-[4-(difluoromethoxy)-6-(1-ethylpyrazol-4-yl)-2-methylindazol-3-yl]-6-methoxybenzamide], the pIC50 against GST-tagged SIK2 was 8.82; on GST-tagged SIK3, 8.26; against GST-tagged SIK1 it was 8.13.
For `COc1cc(-c2c3c(C#N)cc(-c4cnn(C[C@H]5C[C@@H](O)C5)c4)cc3nn2C)cc(OC(F)F)c1C(=O)NCC1(F)CC1` [Example 91, 4-[4-cyano-6-[1-[(cis-3-hydroxycyclobutyl)methyl]pyrazol-4-yl]-2-methylindazol-3-yl]-2-(difluoromethoxy)-N-[(1-fluorocyclopropyl)methyl]-6-methoxybenzamide], in that order: 8.00, 8.14 and 7.76.
